Where two headings read alike, the source gives them in different places.
Assays:
HaCaT = conditions: 24 hours
Experimental: (§1) Potential apoptosis and necrosis induction was studied in the cell lines using Annexin V conjugated with Alexa Fluor 488 (Molecular Probes) and Propidium Iodide (PI, Sigma) fluorochromes by Flow Cytometry, to measure early apoptotic event and necrosis respectively, after exposure to different concentrations of sulforaphane or sulforaphane-loaded nanoemulsion suspensions. HaCaT, and 3T3 cells were seeded in 24 well plates at a density of 100.000 cells/well. 24 hours later cells were exposed to test items for further 24 hours. After the exposure, 5 µL of the annexin V conjugates were added to each 100 µL of cell suspension replicate (minimum of 10.000 cell/100µL) and incubated at room temperature for 15 minutes. After incubation, cells were washed and submitted to flow cytometry acquisition. Immediately before acquisition, the stained cells were contrasted with PI (5 µg/ml) to detect necrotic cells and analysed by Cytomics FC500 Flow Cytometer. Three independent experiments and at least three replicates for each experimental point were carried out. Each experiment included a negative control (untreated cells). […]

3T3 = conditions: 3T3, 24 hours
Experimental: as §1

[1] = 6.25 mM sulforaphane (6.26 printed for the nanoemulsion)

## C[S+]([O-])CCCCN=C=S (racemic) [Sulforaphane, D,L-Sulforaphane]
HaCaT; 3.125 mM sulforaphane
  AnnexinV (percentage of positive cells): 5.90±0.98%
  AnnexinV+PI (percentage of positive cells): 1.27±0.06%
  C neg (percentage of cells): 90.97±1.77%
  PI (percentage of positive cells): 1.87±0.81%
HaCaT; [1]
  AnnexinV (percentage of positive cells): 7.33±1.82%
  AnnexinV+PI (percentage of positive cells): 1.83±0.15%
  C neg (percentage of cells): 88.50±1.65%
  PI (percentage of positive cells): 2.33±0.61%
HaCaT; 12.5 mM sulforaphane
  AnnexinV (percentage of positive cells): 7.17±1.74%
  AnnexinV+PI (percentage of positive cells): 2.03±0.35%
  C neg (percentage of cells): 88.10±3.40%
  PI (percentage of positive cells): 2.70±0.30%
3T3; 3.125 mM sulforaphane
  AnnexinV (percentage of positive cells): 7.73±1.23%
  AnnexinV+PI (percentage of positive cells): 1.93±0.15%
  C neg (percentage of cells): 86.23±1.77%
  PI (percentage of positive cells): 4.10±2.38%
3T3; [1]
  AnnexinV (percentage of positive cells): 7.83±1.50%
  AnnexinV+PI (percentage of positive cells): 2.03±0.46%
  C neg (percentage of cells): 86.97±1.68%
  PI (percentage of positive cells): 3.17±0.76%
3T3; 12.5 mM sulforaphane
  AnnexinV (percentage of positive cells): 11.07±1.59%
  AnnexinV+PI (percentage of positive cells): 3.07±0.67%
  C neg (percentage of cells): 81.57±3.40%
  PI (percentage of positive cells): 4.30±0.54%

Source: patent EP3995133A1, “STABLE NANOEMULSIONS” (Fundación Tecnalia Research & Innovation, priority 2020, dated 2022)
